Source: patent publication US7205333B2 (priority 2000, dated 2007)
Converted amounts (≈) assume the structure as drawn. Like-named read-outs stand apart in the source and are kept apart here.

Assays:
[1] = Long duration of action: level of compound in lung tissue after intra-tracheal dosing; assay type: in vivo, Rodents; conditions: 0.4 mg/kg intra-tracheal, LC-MS/MS, in parallel with Zanamivir
Protocol: Rodents are anaesthetised and dosed with compound of interest by the intra-tracheal route at a dose volume of 0.8 ml/kg. The rodent is then held in the vertical position until full recovery is achieved. At different time points, for example, 2, 8, 24 and 48 hours post-dose, levels of compound in the lung tissue are assessed by analytical methods. Any analytical method suitable for detection of this type of compound may-be used. The time at which levels of compound fall below the sensitivity of the analytical techniques identified will determine the residency time of the compound in lung tissue.
The multimeric Compounds No 3, 4 and 20 of the invention were tested in parallel with Zanamivir [Compound (A)] using a dose of 0.4 mg/kg for each compound and assessing the level of compound in the lung tissue after 48 and 168 hours, using LC-MS/MS.

[2] = test system: Influenza A/Victoria/3/75; test: Influenza plaque assay in MDCK cell monolayers; conditions: Influenza A virus, 96 h, read-out: EC50 on Influenza A/Victoria/3/75
[3] = test system: Influenza A/Victoria/3/75; parameters: species or system mice; conditions: mouse, in vivo
[4] = test system: Influenza B/Victoria/1/87; test: Influenza plaque assay in MDCK cell monolayers; conditions: Influenza B virus, 96 h, read-out: EC50 on Influenza B/Victoria/1/87
[5] = test system: Influenza A/Singapore/1/57; assay type: in vivo; parameters: Effectiveness: unit: %; conditions: A/Singapore/1/57, lungs 1 day post infection; for Effectiveness / Mean Virus Titre (logTCID50/ml): mice
[6] = test system: B/Harbin/7/95; test: Inhibition of cytopathic effect (CPE) of influenza virus replication in MDCK cells; conditions: for EC50 / IC50: Influenza B virus, MDCK; for EC50: read-out: EC50 on Influenza B/Harbin/7/95
[7] = test system: A/Sydney/5/97; test: as above; conditions: for EC50 / IC50: Influenza A virus, MDCK; for EC50: read-out: EC50 on Influenza A/Sydney/5/97
[8] = test system: A/Victoria/3/75; test: as above
[9] = test system: Influenza A/WSN/33; test: Influenza plaque assay in MDCK cell monolayers; conditions: Influenza A virus, 96 h, read-out: EC50 on Influenza A/WSN/33
[10] = test system: Influenza A/Victoria/3/75; parameters: species or system mice; conditions: mouse, in vivo; remark: listed apart in the source
[11] = CPE results, same protocol as b341, MDCK cells

SMILES | EC50 [2] [ng/mL] | % Effectiveness [3] [%] | Mean Virus Titre (logTCID50/ml) [3] [logTCID50/ml] | Number of virus free mice [3] | EC50 [4] [ng/mL] | Number of virus free mice ([5]; 1 mg/kg) | Effectiveness ([5]; 1 mg/kg) | Mean Virus Titre (logTCID50/ml) ([5]; 1 mg/kg) | EC50 [6] [ng/mL] | EC50 [7] [ng/mL] | IC50 ([6]; read-out: IC50 nM) [nM] | IC50 ([6]; read-out: IC50 ng/ml) [ng/mL] | IC50 ([8]; read-out: IC50 nM) [nM] | IC50 ([8]; read-out: IC50 ng/ml) [ng/mL] | IC50 ([7]; read-out: IC50 nM) [nM] | IC50 ([7]; read-out: IC50 ng/ml) [ng/mL] | also measured
CC(=O)N[C@H]1[C@H]([C@H](OC(=O)NCCCCCCNC(=O)CN(CCN(CC(=O)NCCCCCCNC(=O)O[C@H](C(O)CO)[C@@H]2OC(C(=O)O)=C[C@H](NC(=N)N)[C@H]2NC(C)=O)CC(=O)NCCCCCCNC(=O)O[C@H](C(O)CO)[C@@H]2OC(C(=O)O)=C[C@H](NC(=N)N)[C@H]2NC(C)=O)CC(=O)NCCCCCCNC(=O)O[C@H](C(O)CO)[C@@H]2OC(C(=O)O)=C[C@H](NC(=N)N)[C@H]2NC(C)=O)C(O)CO)OC(C(=O)O)=C[C@@H]1NC(=N)N (some centres unmarked) [Compound 3] | 0.1 (≈ 0.0472 nM) | 59 | 4.0 | 4 | 0.3 (≈ 0.142 nM) | 1 | 99.47 | 3.78 | – | – | – | – | – | – | – | – | level of compound in the lung tissue after 48 and 168 hours [1]: retained in the lung at much higher concentrations than the monomer Zanamivir (A); Number of virus free mice ([5]; 0.01 mg/kg): 0; Effectiveness ([5]; 0.01 mg/kg): 68.38; Mean Virus Titre (logTCID50/ml) ([5]; 0.01 mg/kg): 5.55 logTCID50/ml; Number of virus free mice ([5]; 0.1 mg/kg): 0; Effectiveness ([5]; 0.1 mg/kg): 95.53; Mean Virus Titre (logTCID50/ml) ([5]; 0.1 mg/kg): 4.70 logTCID50/ml
CC(=O)N[C@H]1[C@H]([C@H](OC(=O)NCCCCCCNC(=O)CN(CCN(CC(=O)NCCCCCCNC(=O)O[C@@H]([C@@H]2OC(C(=O)O)=C[C@H](NC(=N)N)[C@H]2NC(C)=O)[C@H](O)CO)CC(=O)NCCCCCCNC(=O)O[C@@H]([C@@H]2OC(C(=O)O)=C[C@H](NC(=N)N)[C@H]2NC(C)=O)[C@H](O)CO)CC(=O)O)[C@H](O)CO)OC(C(=O)O)=C[C@@H]1NC(=N)N.O=C(O)C(F)(F)F [Compound 14, (19R,20R)-19-((2R,3R,4S)-3-(acetylamino)-4-{[amino (imino)methyl]amino}-6-carboxy-3,4-dihydro-2H-pyran-2-yl)-3,6-bis[2-({6-[({[(1R,2R)-1-((2R,3R,4S)-3-(acetylamino)-4-{[amino(imino)methyl]amino}-6-carboxy-3,4-dihydro-2H-pyran-2-yl)-2,3-dihydroxypropyl]oxy}carbonyl)amino]hexyl}amino)-2-oxoethyl]-20,21-dihydroxy-8,17-dioxo-18-oxa-3,6,9,16-tetraazahenicosan-1-oic acid tris(trifluoroacetate)] | – | – | – | – | 6.3 | – | – | – | – | – | – | – | – | – | – | – | –
CC(=O)N[C@H]1[C@H]([C@H](OC(=O)NCCCCCCNC(=O)COc2c3cc(C(C)(C)C)cc2Cc2cc(C(C)(C)C)cc(c2OCC(=O)NCCCCCCNC(=O)O[C@@H]([C@@H]2OC(C(=O)O)=C[C@H](NC(=N)N)[C@H]2NC(C)=O)[C@H](O)CO)Cc2cc(C(C)(C)C)cc(c2OCC(=O)NCCCCCCNC(=O)O[C@@H]([C@@H]2OC(C(=O)O)=C[C@H](NC(=N)N)[C@H]2NC(C)=O)[C@H](O)CO)Cc2cc(C(C)(C)C)cc(c2OCC(=O)NCCCCCCNC(=O)O[C@@H]([C@@H]2OC(C(=O)O)=C[C@H](NC(=N)N)[C@H]2NC(C)=O)[C@H](O)CO)C3)[C@H](O)CO)OC(C(=O)O)=C[C@@H]1NC(=N)N [Compound 23] | – | 78.2 | 4.7 | 0 | – | – | – | – | – | – | – | – | – | – | – | – | EC50 on Influenza B/Harbin/7/95 [6, 11]: 9.263; EC50 on Influenza A/Sydney/5/97 [7, 11]: 27.714
O=Cc1cc(C=O)cc(C=O)c1 [Compound 29] | – | – | – | – | – | – | – | – | 0.882 (≈ 5.44 nM) | 0.089 (≈ 0.549 nM) | – | – | – | – | – | – | –
CC(=O)N[C@H]1[C@H]([C@H](OC(=O)NCCCCCCN)[C@H](O)CO)OC(C(=O)O)=C[C@@H]1NC(=N)N [Compound (2) TFA2, 5-acetamido-7-(6-aminohexylcarbamoyloxy)-4-guanidino-2,3,4,5-tetradeoxy-D-glycero-D-galacto-non-2-enopyranosonic acid] | – | – | – | – | – | – | – | – | – | – | 259 | 182 | 52.7 | 37 | 588 | 413 | –
CC(=O)N[C@H]1[C@H]([C@H](O)[C@H](O)CO)OC(C(=O)O)=C[C@@H]1NC(=N)N [Zanamivir, 4-guanidino-2-deoxy-2,3-dehydro-N-acetylneuraminic acid, reference compound] | 3.5 (≈ 10.5 nM) | −43.4 | – | 0 | 16 (≈ 48.1 nM) | 0 | 74.88 | 5.18 | 14.2 (≈ 42.7 nM) | 32.7 (≈ 98.3 nM) | 31.2 | 10.4 | 73.9 | 24.6 | 77.7 | 25.8 | EC50 [9]: 22.7 ng/mL (≈ 68.3 nM); Effectiveness [10]: 81.76; Number of virus free mice [10]: 0; Number of virus free mice ([5]; 0.2 mg/kg): 0; Effectiveness ([5]; 0.2 mg/kg): 33.17; Mean Virus Titre (logTCID50/ml) ([5]; 0.2 mg/kg): 5.60 logTCID50/ml; Number of virus free mice ([5]; 5 mg/kg): 1; Effectiveness ([5]; 5 mg/kg): 93.69; Mean Virus Titre (logTCID50/ml) ([5]; 5 mg/kg): 4.58 logTCID50/ml
